Assay [1] concerns the target T1, Polyamine deacetylase HDAC10 (Homo sapiens, UniProt Q969S8).
T1 sequence (Q969S8 whole entry): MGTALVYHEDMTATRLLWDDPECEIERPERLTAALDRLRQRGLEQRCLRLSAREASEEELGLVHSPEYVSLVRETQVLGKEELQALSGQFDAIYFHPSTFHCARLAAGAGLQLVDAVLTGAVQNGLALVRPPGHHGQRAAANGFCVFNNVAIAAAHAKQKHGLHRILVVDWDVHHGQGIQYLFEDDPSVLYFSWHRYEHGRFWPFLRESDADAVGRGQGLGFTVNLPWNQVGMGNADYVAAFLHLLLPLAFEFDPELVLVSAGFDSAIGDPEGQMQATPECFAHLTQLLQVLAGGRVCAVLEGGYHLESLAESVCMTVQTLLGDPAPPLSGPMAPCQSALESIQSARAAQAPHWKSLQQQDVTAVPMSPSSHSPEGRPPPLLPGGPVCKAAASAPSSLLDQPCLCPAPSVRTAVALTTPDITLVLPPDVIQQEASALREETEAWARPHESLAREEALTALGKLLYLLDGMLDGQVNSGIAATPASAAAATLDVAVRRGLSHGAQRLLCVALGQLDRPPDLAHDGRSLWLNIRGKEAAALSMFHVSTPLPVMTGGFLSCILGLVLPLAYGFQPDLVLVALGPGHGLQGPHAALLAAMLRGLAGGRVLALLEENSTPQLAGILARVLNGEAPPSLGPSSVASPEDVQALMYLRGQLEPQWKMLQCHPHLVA
Kind of assay: Inhibition of HDAC10 (unknown origin) using (FAM)-labeled acetylated peptide as substrate measured after 17 hrs by fluorescence assay.

For assay [2], the target named is T2, Histone deacetylase 1 (Homo sapiens, UniProt Q13547). Kind of assay: Inhibition of HDAC1 (unknown origin) using (FAM)-labeled acetylated peptide as substrate measured after 17 hrs by fluorescence assay.
T2 sequence (Q13547 whole entry): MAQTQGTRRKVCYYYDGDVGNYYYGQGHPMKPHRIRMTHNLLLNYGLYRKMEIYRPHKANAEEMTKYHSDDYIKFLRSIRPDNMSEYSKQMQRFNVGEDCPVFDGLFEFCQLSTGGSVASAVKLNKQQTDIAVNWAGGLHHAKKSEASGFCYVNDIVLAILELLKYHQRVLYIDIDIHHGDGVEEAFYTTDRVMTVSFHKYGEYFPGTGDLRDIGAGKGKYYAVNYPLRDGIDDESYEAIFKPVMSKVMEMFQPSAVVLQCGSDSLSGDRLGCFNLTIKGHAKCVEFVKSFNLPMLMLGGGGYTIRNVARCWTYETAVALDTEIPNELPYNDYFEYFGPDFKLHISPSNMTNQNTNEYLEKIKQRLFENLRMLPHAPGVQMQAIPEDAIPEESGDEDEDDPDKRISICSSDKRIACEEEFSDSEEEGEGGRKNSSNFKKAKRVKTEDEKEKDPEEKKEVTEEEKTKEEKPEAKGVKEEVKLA
Assay [3] has as its target T3, Protein deacetylase HDAC6 (Homo sapiens, UniProt Q9UBN7).
T3 sequence (Q9UBN7 whole entry): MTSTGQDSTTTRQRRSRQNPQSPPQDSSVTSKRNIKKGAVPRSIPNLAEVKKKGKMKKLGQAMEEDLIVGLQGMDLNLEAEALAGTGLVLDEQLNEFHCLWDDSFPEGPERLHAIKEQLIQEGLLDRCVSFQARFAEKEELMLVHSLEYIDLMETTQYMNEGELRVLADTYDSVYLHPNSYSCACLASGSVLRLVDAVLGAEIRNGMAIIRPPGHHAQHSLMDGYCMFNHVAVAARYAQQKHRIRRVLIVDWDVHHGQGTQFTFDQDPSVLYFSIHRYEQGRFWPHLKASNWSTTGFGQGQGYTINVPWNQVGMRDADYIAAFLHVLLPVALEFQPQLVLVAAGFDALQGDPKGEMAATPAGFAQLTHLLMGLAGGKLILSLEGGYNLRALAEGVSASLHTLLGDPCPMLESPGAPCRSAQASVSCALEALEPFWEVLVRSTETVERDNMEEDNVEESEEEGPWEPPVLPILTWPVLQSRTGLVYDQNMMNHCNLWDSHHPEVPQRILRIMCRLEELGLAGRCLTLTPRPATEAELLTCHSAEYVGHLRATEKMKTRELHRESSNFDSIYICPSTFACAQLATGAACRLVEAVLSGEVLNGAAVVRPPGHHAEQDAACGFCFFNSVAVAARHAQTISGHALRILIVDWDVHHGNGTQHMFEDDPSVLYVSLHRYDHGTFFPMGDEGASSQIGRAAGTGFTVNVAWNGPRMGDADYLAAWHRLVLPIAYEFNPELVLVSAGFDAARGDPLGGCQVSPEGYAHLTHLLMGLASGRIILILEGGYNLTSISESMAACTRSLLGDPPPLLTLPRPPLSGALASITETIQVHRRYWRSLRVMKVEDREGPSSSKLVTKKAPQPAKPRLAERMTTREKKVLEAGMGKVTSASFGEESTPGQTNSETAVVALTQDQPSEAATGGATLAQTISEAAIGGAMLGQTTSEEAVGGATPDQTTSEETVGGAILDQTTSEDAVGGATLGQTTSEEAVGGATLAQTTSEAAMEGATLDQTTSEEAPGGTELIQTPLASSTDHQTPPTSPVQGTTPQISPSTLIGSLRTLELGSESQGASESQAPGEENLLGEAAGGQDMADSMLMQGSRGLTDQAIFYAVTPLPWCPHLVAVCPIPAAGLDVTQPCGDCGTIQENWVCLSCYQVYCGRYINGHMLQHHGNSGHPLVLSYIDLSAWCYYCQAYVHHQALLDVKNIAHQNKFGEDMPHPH
Kind of assay: Inhibition of HDAC6 (unknown origin) using (FAM)-labeled acetylated peptide as substrate measured after 17 hrs by fluorescence assay.

For the next assay, the target named is Histone deacetylase 2 (Homo sapiens, UniProt Q92769).
Sequence of Histone deacetylase 2 (Q92769 whole entry): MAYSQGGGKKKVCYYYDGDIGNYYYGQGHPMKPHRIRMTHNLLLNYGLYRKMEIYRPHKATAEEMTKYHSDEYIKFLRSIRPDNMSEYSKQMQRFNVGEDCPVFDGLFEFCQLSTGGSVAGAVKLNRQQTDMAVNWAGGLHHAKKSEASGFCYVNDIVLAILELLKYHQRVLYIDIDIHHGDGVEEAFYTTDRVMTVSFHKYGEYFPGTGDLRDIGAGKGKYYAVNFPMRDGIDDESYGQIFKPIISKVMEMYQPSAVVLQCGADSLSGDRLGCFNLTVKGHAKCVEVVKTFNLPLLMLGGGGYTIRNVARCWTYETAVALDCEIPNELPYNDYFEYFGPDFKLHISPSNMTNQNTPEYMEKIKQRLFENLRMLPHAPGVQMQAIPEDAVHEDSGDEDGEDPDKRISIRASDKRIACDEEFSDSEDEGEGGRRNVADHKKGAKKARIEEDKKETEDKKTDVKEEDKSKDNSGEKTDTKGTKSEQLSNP
For assay [4], the target named is T4, Histone deacetylase 8 (Homo sapiens, UniProt Q9BY41).
T4 sequence (Q9BY41 whole entry): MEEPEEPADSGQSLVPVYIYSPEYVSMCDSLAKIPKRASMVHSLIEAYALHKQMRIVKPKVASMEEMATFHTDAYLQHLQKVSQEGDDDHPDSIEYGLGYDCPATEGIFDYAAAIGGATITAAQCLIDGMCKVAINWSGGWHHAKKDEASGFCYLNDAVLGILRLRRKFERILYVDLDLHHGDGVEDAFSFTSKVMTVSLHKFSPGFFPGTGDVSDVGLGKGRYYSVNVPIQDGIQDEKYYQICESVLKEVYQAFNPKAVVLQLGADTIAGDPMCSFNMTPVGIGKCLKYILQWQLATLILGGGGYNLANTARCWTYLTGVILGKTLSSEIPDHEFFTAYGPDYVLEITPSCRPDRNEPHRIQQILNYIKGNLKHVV
Kind of assay: Inhibition of HDAC8 (unknown origin) using (FAM)-labeled acetylated peptide as substrate measured after 17 hrs by fluorescence assay.

The next assay relates to PC-3. Kind of assay: cells. The format is functional, cell-based. As to conditions: Homo sapiens.
Another assay relates to MDA-MB-231. Kind of assay: cells. As to conditions: Homo sapiens.
The test system of a further assay is RWPE-1. Kind of assay: cells. The assay is classed as ADME, cell-based. The conditions noted are these: Homo sapiens.
Another assay deals with MCF7. Kind of assay: cells. The format is functional, cell-based. As to conditions: Homo sapiens.
For the next assay, the system named is Vero. Kind of assay: cells. The format is ADME, cell-based. As to conditions: Chlorocebus sabaeus.
Assay [5] concerns the target T4, Histone deacetylase 8. Kind of assay: Inhibition of human HDAC8 using ZMTFAL as substrate measured after 90 mins by fluorescence assay.
The target in assay [6] is Protein deacetylase HDAC6 (Homo sapiens) (UniProt Q9UBN7). Kind of assay: Inhibition of human HDAC6 at 100 uM relative to control.
Assay [7] addresses Histone deacetylase. The format is cell-based, Homo sapiens. The conditions noted are these: hela.
Assay [8] has as its target T2, Histone deacetylase 1. Kind of assay: Inhibition of recombinant human GST-fused HDAC1 expressed in HEK293 cells Fluor-de-lys as substrate measured after 60 mins by fluorescence assay.
Assay [9] addresses Histone deacetylase. The format is cell-based, Homo sapiens. The conditions noted are these: hela. This is another data set of the same source.
Assay [10] has as its target T3, Protein deacetylase HDAC6. Kind of assay: Inhibition of recombinant human His-tagged HDAC6 expressed in baculovirus infected insect cells using Fluor-de-lys as substrate measured after 60 mins by fluorescence assay.

The structures appear in SMILES notation. A value given as a limit tells only on which side of the number the result lay.

Here are results for 5 compounds from ChEMBL document CHEMBL4422610, “HDAC as onco target: Reviewing the synthetic approaches with SAR study of their inhibitors” (Eur J Med Chem, 2018).

On to `Nc1ccccc1NC(=O)CCCCCCC(=O)Nc1ccc(-c2cn(Cc3ccccc3)nn2)cc1`, for which the IC50 (in assay [1]; at Histone deacetylase 1 [2]; in assay [3]; at Histone deacetylase 2; on Histone deacetylase 8 [4]) was greater than 30 µM in each case.
Consider `CC1(C)C(=O)N(c2ccc(C#N)c(C(F)(F)F)c2)C(=O)N1Cc1ccc(-c2cn(CCCCCCC(=O)NO)nn2)cc1`, for which the IC50 in the assay on PC-3 came to 3.31 µM; in the assay on MDA-MB-231 it was 1.45 µM; in the assay on RWPE-1, 0.48 µM; in the assay on MCF7, 4.24 µM; in the assay with Vero it was 11 µM.
On Histone deacetylase 8 [5], `O=C(NO)c1ccc(NC(=S)N/N=C/c2ccccc2)cc1` returned a half-maximal inhibitory concentration (IC50) of 27.6 µM. Besides, in [6], the inhibition turned out to be 30%.
With `CCn1cnc(-c2ccccc2)c1-c1ccc(/C=C/C(=O)NO)cc1`, the IC50 is 0.132 µM against Histone deacetylase [7], 0.028 µM on Histone deacetylase 1 [8], 0.234 µM against Histone deacetylase [9] and 0.107 µM in assay [10].
`O=C(NO)c1ccc(NC(=S)N/N=C/c2ccc(F)cc2)cc1` came in with an IC50 against Histone deacetylase 8 [5] of 19.7 µM. In [6], this compound yielded an inhibition of 23%.

The term IC50 denotes the point on the concentration scale where inhibition reaches its midpoint. One may read the inhibition as the change of the read-out against control, counted positive when it falls. A higher inhibition goes with a response far below the control.
